Four molecules from ChEMBL document CHEMBL1129843, “Synthesis of a pyrimido[4,5-b]azepine analog of 5,10-dideaza-5,6,7,8-tetrahydrofolic acid (DDATHF)” (Bioorg Med Chem Lett, 1997) can be followed below.

One series has as its system CCRF-CEM. Kind of series: Tested in vitro for cellular cytotoxicity against human T-cell derived lymphoblastic leukemia (CCRF-CEM) cells. The format is functional, cell-based.
Series [1] has as its target T1, Trifunctional purine biosynthetic protein adenosine-3 (Mus musculus, UniProt Q64737).
T1 sequence (Q64737 whole entry): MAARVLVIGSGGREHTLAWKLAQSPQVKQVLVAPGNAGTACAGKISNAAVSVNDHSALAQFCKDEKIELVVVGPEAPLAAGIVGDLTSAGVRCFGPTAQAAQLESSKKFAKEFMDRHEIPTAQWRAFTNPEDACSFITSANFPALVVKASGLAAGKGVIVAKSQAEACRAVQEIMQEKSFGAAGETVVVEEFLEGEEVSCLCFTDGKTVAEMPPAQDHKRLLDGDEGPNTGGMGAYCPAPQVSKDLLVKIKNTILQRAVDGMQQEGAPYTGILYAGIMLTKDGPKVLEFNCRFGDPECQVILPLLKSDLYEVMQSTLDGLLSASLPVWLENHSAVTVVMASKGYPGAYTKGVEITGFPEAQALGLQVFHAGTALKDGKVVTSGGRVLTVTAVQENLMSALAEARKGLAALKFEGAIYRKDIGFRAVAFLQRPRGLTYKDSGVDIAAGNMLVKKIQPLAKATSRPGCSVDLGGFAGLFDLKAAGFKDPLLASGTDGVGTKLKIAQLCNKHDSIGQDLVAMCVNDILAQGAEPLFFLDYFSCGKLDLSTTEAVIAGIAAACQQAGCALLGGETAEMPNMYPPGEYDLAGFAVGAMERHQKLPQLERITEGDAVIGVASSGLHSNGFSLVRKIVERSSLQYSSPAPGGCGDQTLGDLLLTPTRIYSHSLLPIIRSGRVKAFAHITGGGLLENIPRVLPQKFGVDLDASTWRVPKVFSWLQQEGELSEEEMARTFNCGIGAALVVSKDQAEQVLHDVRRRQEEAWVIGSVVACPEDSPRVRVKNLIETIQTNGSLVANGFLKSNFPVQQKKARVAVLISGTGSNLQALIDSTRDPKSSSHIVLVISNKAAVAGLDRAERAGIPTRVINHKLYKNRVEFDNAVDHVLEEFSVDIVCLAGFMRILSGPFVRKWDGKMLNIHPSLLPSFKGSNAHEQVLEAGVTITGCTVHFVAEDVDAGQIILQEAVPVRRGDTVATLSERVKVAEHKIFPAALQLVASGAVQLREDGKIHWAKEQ
Kind of series: Tested in vitro for its inhibition of trifunctional glycinamide ribonucleotide formyltransferase (GARFT) isolated from murine L1210 leukemia cells.

Series [2] concerns the target T2, Folylpolyglutamate synthase, mitochondrial (Homo sapiens) (UniProt Q05932).
T2 sequence (whole entry): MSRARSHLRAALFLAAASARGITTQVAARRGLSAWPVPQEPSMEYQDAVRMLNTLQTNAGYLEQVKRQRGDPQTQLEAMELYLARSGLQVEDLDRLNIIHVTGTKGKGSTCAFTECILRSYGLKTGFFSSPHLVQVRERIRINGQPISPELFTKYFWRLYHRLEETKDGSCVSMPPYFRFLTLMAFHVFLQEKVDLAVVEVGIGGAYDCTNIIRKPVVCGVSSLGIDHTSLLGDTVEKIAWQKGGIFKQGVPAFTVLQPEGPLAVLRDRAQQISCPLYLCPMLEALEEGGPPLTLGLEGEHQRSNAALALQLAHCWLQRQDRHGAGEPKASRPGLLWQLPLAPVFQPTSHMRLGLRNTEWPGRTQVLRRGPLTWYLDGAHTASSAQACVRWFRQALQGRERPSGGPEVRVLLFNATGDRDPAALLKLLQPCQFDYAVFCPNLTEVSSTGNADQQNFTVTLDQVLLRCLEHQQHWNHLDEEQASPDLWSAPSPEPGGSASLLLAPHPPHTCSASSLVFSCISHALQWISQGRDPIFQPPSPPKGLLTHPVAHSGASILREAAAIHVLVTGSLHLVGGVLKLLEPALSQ
In words: Ratio of Vmax to Km value and expressed as k'. As to conditions: Sus scrofa.

Substrate in series [3]: Nc1cc2c(c(O)n1)CC(CCc1ccc(C(=O)N[C@@H](CCC(=O)O)C(=O)O)cc1)CCN2
Conditions: Sus scrofa.
Description: In vitro Folyl-poly-gamma-glutamyl synthetase (FPGS) affinity

As for `Nc1nc2c(c(=O)[nH]1)C[C@@H](CCc1ccc(C(=O)N[C@@H](CCC(=O)O)C(=O)O)cc1)CN2` [LOMETREXOL], in the series on CCRF-CEM, half-maximal inhibition (IC50) was put at 15.2 nM. Further, in series [1], the inhibitory constant (Ki) (as a rule, a measure of affinity in units of concentration, obtained from inhibition or displacement) is 59.7 nM. The k' in series [2] turned out to be 59.
For the molecule `Nc1cc2c(c(O)n1)CC(CCc1ccc(C(=O)N[C@@H](CCC(=O)O)C(=O)O)cc1)CCN2` (some centres undefined), in the series with CCRF-CEM, half-maximal inhibition (IC50) was put at 47 nM. In addition, in series [1], the inhibition constant (Ki) came out at 147 nM. In addition, in series [2], the k' is 20.
As for `Nc1nc2c(c(=O)[nH]1)C[C@H](CCc1ccc(C(=O)NC(CCC(=O)O)C(=O)O)cc1)CN2` (some centres undefined), half-maximal inhibition in the series with CCRF-CEM (IC50) was put at 16 nM. Further, the affinity in series [1] corresponds to a Ki of 120 nM.

B1: Folylpolyglutamate synthase, mitochondrial (Homo sapiens), Q05932 (protein)
chain: MSRARSHLRAALFLAAASARGITTQVAARRGLSAWPVPQEPSMEYQDAVRMLNTLQTNAGYLEQVKRQRGDPQTQLEAMELYLARSGLQVEDLDRLNIIHVTGTKGKGSTCAFTECILRSYGLKTGFFSSPHLVQVRERIRINGQPISPELFTKYFWRLYHRLEETKDGSCVSMPPYFRFLTLMAFHVFLQEKVDLAVVEVGIGGAYDCTNIIRKPVVCGVSSLGIDHTSLLGDTVEKIAWQKGGIFKQGVPAFTVLQPEGPLAVLRDRAQQISCPLYLCPMLEALEEGGPPLTLGLEGEHQRSNAALALQLAHCWLQRQDRHGAGEPKASRPGLLWQLPLAPVFQPTSHMRLGLRNTEWPGRTQVLRRGPLTWYLDGAHTASSAQACVRWFRQALQGRERPSGGPEVRVLLFNATGDRDPAALLKLLQPCQFDYAVFCPNLTEVSSTGNADQQNFTVTLDQVLLRCLEHQQHWNHLDEEQASPDLWSAPSPEPGGSASLLLAPHPPHTCSASSLVFSCISHALQWISQGRDPIFQPPSPPKGLLTHPVAHSGASILREAAAIHVLVTGSLHLVGGVLKLLEPALSQ
For B1, in series [3], the Michaelis constant (Km) (usually the substrate concentration at which the rate is half of its maximum) turned out to be 39 µM.
